Assay [1] deals with T1, NEDD8/NEDD8-conjugating enzyme Ubc12 (Homo sapiens, UniProt P61081+Q15843). The assay can be described thus: Inhibition of GST-tagged recombinant human UBE2M/His-tagged human NEDD8 interaction by HTRF assay relative to control. It counts as protein-complex assay. Background: Time-resolved FRET reads energy transfer from a long-lived donor to a nearby acceptor.
A short description of assay [2]: Inhibition of His-tagged recombinant human NAE expressed in Escherichia coli (BL21) by HTRF assay.
The species named for the next assay is Homo sapiens. The assay can be described thus: Inhibition of neddylation of His-tagged recombinant human NAE expressed in Escherichia coli (BL21) at 6.25 to 100 uM by Western blot analysis. The settings on record: dose 6.25-100 µM. Background: Immunoblotting shows a protein as a band on a membrane.
Assay [3] has as its system AGS. The assay can be described thus: Induction of cell cycle arrest at G2/M phase in human AGS cells at 20 to 40 uM incubated for 24 hrs by PI staining based FACS analysis. It counts as functional. The settings on record: dose 20-40 µM. Background: A flow cytometer gives signals particle by particle.
For assay [4], the system named is AGS. Nature of the assay: Inhibition of cell viability in human AGS cells incubated for 72 to 120 hrs by MTT assay. It counts as functional, cell-based. The settings on record: dose 5-80 µM, time 72-120 hrs.
The subject of assay [5] is AGS. The assay can be described thus: Induction of apoptosis in human AGS cells assessed as increase in NOXA level at 5 to 40 uM incubated for 24 hrs by immunoblot analysis. It counts as functional, cell-based. The settings on record: dose 5-40 µM.
In assay [6] the target is T2, NEDD8-conjugating enzyme Ubc12 (Homo sapiens) (UniProt P61081).
T2 sequence (whole entry): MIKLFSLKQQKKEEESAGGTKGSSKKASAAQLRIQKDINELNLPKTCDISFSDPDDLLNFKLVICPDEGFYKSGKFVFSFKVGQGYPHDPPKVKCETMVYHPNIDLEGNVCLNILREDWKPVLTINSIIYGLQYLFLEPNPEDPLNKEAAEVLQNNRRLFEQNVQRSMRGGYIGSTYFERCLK
Nature of the assay: Binding affinity to GST-tagged recombinant human UBE2M assessed as protein stability upto 70 degreeC at 20 uM preincubated for 10 mins followed by heat exposure by TSA.

Assay [7] has as its target Cullin-1 (Homo sapiens) (UniProt Q13616). The assay can be described thus: Inhibition of CULLIN-1 neddylation in human AGS cells incubated for 24 hrs by immunoblot analysis. In kind it is cell-based. The settings on record: dose 5-40 µM.
Assay [8] has as its system AGS. Nature of the assay: Inhibition of cell migration of human AGS cells assessed as increase in E-CADHERIN level at 5 to 40 uM incubated for 48 hrs by Western blot analysis. It counts as functional, cell-based. To be noted: dose 5-40 µM.
The test system of assay [9] is AGS. Nature of the assay: Induction of cell cycle arrest at G2 phase in human AGS cells at 20 to 40 uM incubated for 24 hrs by PI staining based FACS analysis. The settings on record: dose 20-40 µM. It counts as functional.
Assay [10] has as its system AGS. Nature of the assay: Induction of cell cycle arrest in human AGS cells assessed as decrease in cell population at S phase at 20 to 40 uM incubated for 24 hrs by PI staining based FACS analysis. To be noted: dose 20-40 µM. In kind it is functional.
In assay [11] the target is T2, NEDD8-conjugating enzyme Ubc12 (Homo sapiens). The assay can be described thus: Binding affinity to GST-tagged recombinant human UBE2M assessed as protein stability at 65 degreeC incubated for 24 hrs by CETSA. The settings on record: AGS.
The target is the same in assay [12]. Nature of the assay: Binding affinity to GST-tagged recombinant human UBE2M assessed as protein stability at 60 degreeC preincubated for 10 mins followed by heat exposure by TSA. To be noted: dose 1.25-20 µM.
Assay [13] has the same target. Nature of the assay: Binding affinity to GST-tagged recombinant human UBE2M assessed as protein stability at 55 to 60 degreeC incubated for 24 hrs by CETSA. In kind it is cell-based. The settings on record: AGS.
The test system of assay [14] is AGS. Nature of the assay: Induction of apoptosis in human AGS cells assessed as decrease in PARP-1 level at 5 to 40 uM incubated for 24 hrs by immunoblot analysis. In kind it is functional, cell-based. The settings on record: dose 5-40 µM.
In assay [15] the test system is AGS. The assay can be described thus: Inhibition of cell migration of human AGS cells at 50 uM incubated for 48 hrs by transwell assay. It counts as functional, cell-based.
The test system of assay [16] is AGS. Nature of the assay: Inhibition of cell migration of human AGS cells assessed as decrease in VIMENTIN level at 5 to 40 uM incubated for 48 hrs by Western blot analysis. The settings on record: dose 5-40 µM. In kind it is functional, cell-based.
The subject of assay [17] is AGS. The assay can be described thus: Induction of DNA damage in human AGS cells assessed as increase in phosphorylated H2Ax expression at 50 uM incubated for 48 hrs by immunofluorescence analysis. In kind it is functional, cell-based.
The subject of assay [18] is AGS. Nature of the assay: Inhibition of cell migration of human AGS cells at 50 uM incubated for 48 hrs by wound healing assay. In kind it is functional, cell-based.
For assay [19], the system named is AGS. Nature of the assay: Inhibition of colony formation of human AGS cells incubated for 10 days with replacement of drug containing medium every 3 days by crystal violet staining based analysis. To be noted: dose 10-40 µM, time 10.0 day. In kind it is functional, cell-based.
The target of assay [20] is T2, NEDD8-conjugating enzyme Ubc12 (Homo sapiens). The assay can be described thus: Inhibition of neddylation of GST-tagged recombinant human UBE2M expressed in Escherichia coli (BL21) by Western blot analysis. The settings on record: dose 6.25-100 µM.
In assay [21] the target is T3, NEDD8-conjugating enzyme Ubc12 (Homo sapiens, UniProt P61081).
T3 sequence (P61081 whole entry): T2 sequence (whole entry)
Nature of the assay: Inhibition of UBE2M neddylation in human AGS cells incubated for 3 days by immunoblot analysis. It counts as cell-based.

In assay [22] the test system is AGS. The assay can be described thus: Inhibition of cell migration of human AGS cells assessed as decrease in SNAIL level at 5 to 40 uM incubated for 48 hrs by Western blot analysis. It counts as functional, cell-based. The settings on record: dose 5-40 µM.
The target in assay [23] is T2, NEDD8-conjugating enzyme Ubc12 (Homo sapiens). The assay can be described thus: Inhibition of […] conjugation to GST-tagged recombinant human UBE2M by pull-down based immunoprecipitation method.
In assay [24] the test system is AGS. The assay can be described thus: Inhibition of global CULLIN neddylation in human AGS cells incubated for 24 hrs by immunoblot analysis. To be noted: dose 5-40 µM. In kind it is cell-based.
The target of assay [25] is Cullin-1 (Homo sapiens) (UniProt Q13616). Nature of the assay: Inhibition of CULLIN-1 neddylation in human AGS cells assessed as increase in p27 level at 5 to 40 uM incubated for 24 hrs by immunoblot analysis. In kind it is cell-based. The settings on record: dose 5-40 µM.
Sequence of Cullin-1 (Homo sapiens) (Q13616 whole entry): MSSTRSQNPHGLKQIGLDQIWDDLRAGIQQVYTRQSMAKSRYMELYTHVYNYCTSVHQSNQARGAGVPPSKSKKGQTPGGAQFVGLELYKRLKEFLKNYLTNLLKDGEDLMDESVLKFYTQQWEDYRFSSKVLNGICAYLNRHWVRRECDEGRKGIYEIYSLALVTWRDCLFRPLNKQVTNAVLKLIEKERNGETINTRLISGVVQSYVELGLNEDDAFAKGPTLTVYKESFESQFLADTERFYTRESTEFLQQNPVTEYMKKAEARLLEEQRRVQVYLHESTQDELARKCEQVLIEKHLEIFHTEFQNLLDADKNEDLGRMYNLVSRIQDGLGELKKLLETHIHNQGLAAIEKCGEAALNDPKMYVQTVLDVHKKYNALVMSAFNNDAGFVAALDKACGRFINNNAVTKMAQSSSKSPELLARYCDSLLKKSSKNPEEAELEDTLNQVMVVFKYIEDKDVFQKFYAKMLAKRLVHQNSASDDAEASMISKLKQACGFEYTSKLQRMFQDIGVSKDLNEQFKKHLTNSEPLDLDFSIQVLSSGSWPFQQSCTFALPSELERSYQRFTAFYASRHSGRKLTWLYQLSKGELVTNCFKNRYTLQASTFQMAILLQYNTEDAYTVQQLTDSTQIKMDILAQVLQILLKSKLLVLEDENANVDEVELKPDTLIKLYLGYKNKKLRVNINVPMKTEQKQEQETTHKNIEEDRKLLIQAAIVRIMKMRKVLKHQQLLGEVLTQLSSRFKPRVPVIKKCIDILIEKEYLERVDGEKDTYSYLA
The test system of assay [26] is AGS. Nature of the assay: Inhibition of cell migration of human AGS cells assessed as increase in N-CADHERIN level at 5 to 40 uM incubated for 48 hrs by Western blot analysis. It counts as functional, cell-based. To be noted: dose 5-40 µM.
Assay [27] deals with AGS. The assay can be described thus: Induction of apoptosis in human AGS cells assessed as increase in cleaved caspase-3 level at 5 to 40 uM incubated for 24 hrs by immunoblot analysis. In kind it is functional, cell-based. To be noted: dose 5-40 µM.
Assay [28] has as its target Cullin-1 (Homo sapiens) (UniProt Q13616). The assay can be described thus: Inhibition of CULLIN-1 neddylation in human AGS cells assessed as increase in p21 level incubated for 24 hrs by immunoblot analysis. In kind it is cell-based. To be noted: dose 5-40 µM.
For assay [29], the target named is T1, NEDD8/NEDD8-conjugating enzyme Ubc12. The assay can be described thus: Inhibition of GST-tagged recombinant human UBE2M/His-tagged human NEDD8 interaction by HTRF assay. In kind it is protein-complex assay.

This is an account of results in ChEMBL document CHEMBL5634094, “Micafungin: A promising inhibitor of UBE2M in cancer cell growth suppression” (Eur J Med Chem, 2023).

SMILES strings stand for the structures. Activity calls are given as the source filed them. The rule behind the calls is not given here. Starred links: 1 amine or outer side, 2 acyl side, 3 side chain; linkers in the order of their positions; H or OH if unused. Positions of bridges follow the written chain, without caps; N, C: chain ends. Non-standard residues stand in square brackets, D forms with d. Residues, ends and D or L forms follow the SMILES beside them. *: point of attachment. hTyr(3S-OH,4S-OH,3'-OSO3H) = N[C@H](C(=O)O)[C@H](O)[C@@H](O)c1ccc(O)c(OS(=O)(=O)O)c1; Orn(4R-OH,5R-OH) = O=C([C@H](C[C@@H](O)[C@@H](O)N[*:3])N[*:1])[*:2]; Pro(3S-OH,4S-Me) = C[C@H]1CN[C@H](C(=O)O)[C@H]1O; X1 = CCCCCOc1ccc(-c2cc(-c3ccc(C(=O)*)cc3)no2)cc1; Gln(3R-OH) = NC(=O)C[C@@H](O)[C@H](N)C(=O)O; Hyp = O=C(O)[C@@H]1C[C@@H](O)CN1

By inhibition is commonly meant how much of the control response was suppressed. As a reminder, the IC50 is the concentration at which inhibition is half-maximal.

T1 sequence (Q15843 whole entry, one chain of several): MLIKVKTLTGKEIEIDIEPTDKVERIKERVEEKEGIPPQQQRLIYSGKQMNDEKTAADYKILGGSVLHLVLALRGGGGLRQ

For `Cc1cccc(N(C)C(=S)Oc2ccc3ccccc3c2)c1`, the inhibition in [1] came out at 55.2%.
Regarding `C[C@H]1c2cccc(O)c2C(=O)C2=C(O)[C@]3(O)C(=O)C(C(N)=O)=C(O)[C@@H](N(C)C)[C@@H]3[C@@H](O)[C@@H]21`, the inhibition in assay [1] was found to be 78.1%.
As to `CN(C)[C@@H]1C(O)=C(C(N)=O)C(=O)[C@@]2(O)C(O)=C3C(=O)c4c(O)cccc4[C@@](C)(O)[C@H]3[C@H](O)[C@@H]12`, the inhibition in assay [1] amounted to 64.8%.
Take `CCCCCCCCCCCC[N+](C)(C)CCOc1ccccc1`: the inhibition in assay [1] was determined as 56.5%.
For the compound `NS(=O)(=O)OC[C@@H]1C[C@@H](n2ccc3c(N[C@H]4CCc5ccccc54)ncnc32)C[C@@H]1O` [PEVONEDISTAT], in assay [2], the IC50 was found to be 0.0058 µM.
With `COc1cccc2c1C(=O)c1c(O)c3c(c(O)c1C2=O)C[C@@](O)(C(=O)CO)C[C@@H]3O[C@H]1C[C@H](N)[C@H](O)[C@H](C)O1`, the inhibition in [1] amounted to 76.5%.
Regarding `CCCCCCCCOc1ccccc1C(=O)Nc1ccc(C(=O)OCC[N+](C)(CC)CC)cc1`, the inhibition entry in the assay listed under Homo sapiens is “Active”. The inhibition in assay [1] was found to be 74.2%.
For the compound `CN(C)c1ccc(O)c2c1C[C@H]1C[C@H]3[C@H](N(C)C)C(O)=C(C(N)=O)C(=O)[C@@]3(O)C(O)=C1C2=O`, in assay [1], the inhibition came to 58.9%.
Turning to `CN(C)c1cc(NC(=O)CNC(C)(C)C)c(O)c2c1C[C@H]1C[C@H]3[C@H](N(C)C)C(O)=C(C(N)=O)C(=O)[C@@]3(O)C(O)=C1C2=O`, the inhibition in assay [1] was found to be 69.3%.
As for `CN(C)[C@@H]1C(O)=C(C(N)=O)C(=O)[C@@]2(O)C(O)=C3C(=O)c4c(O)cccc4[C@@](C)(O)[C@H]3C[C@@H]12`, in [1], the inhibition was determined as 56.4%.
With `CCCCCOc1ccc(-c2cc(-c3ccc(C(=O)N[C@H]4C[C@@H](O)[C@@H](O)NC(=O)[C@@H]5[C@@H](O)[C@@H](C)CN5C(=O)[C@H]([C@H](O)CC(N)=O)NC(=O)[C@H]([C@H](O)[C@@H](O)c5ccc(O)c(OS(=O)(=O)O)c5)NC(=O)[C@@H]5C[C@@H](O)CN5C(=O)[C@H]([C@@H](C)O)NC4=O)cc3)no2)cc1` [MICAFUNGIN] (X1-[Orn(4R-OH,5R-OH)]T[Hyp][hTyr(3S-OH,4S-OH,3'-OSO3H)][Gln(3R-OH)][Pro(3S-OH,4S-Me)]; lactam 1-C), the outcome (with AGS [3]; with AGS [5]; in [6]; in the assay on AGS [9]; in the assay with AGS [10]; in assay [13]) was Active. Moreover, the outcome in the assay on AGS [14], in the assay on AGS [17] and in the assay with AGS [27] was Active. In addition, the inhibition entry in the assay on AGS [4], at Cullin-1 (Homo sapiens) [7], with AGS [8], in the assay with AGS [15], in the assay on AGS [16] and in the assay on AGS [18] was “Active” each time. Further, the inhibition entry (in the assay on AGS [19]; with AGS [22]; in [23]; with AGS [24]; at Cullin-1 (Homo sapiens) [25]; in the assay on AGS [26]) was “Active” throughout. Further, in [11], the result was inactive. Besides, the Activity result in [12] is “Dose-Dependent Effect”. Moreover, in the assay filed under Homo sapiens, the inhibition entry was “inactive”. In addition, the figures for the inhibition result (in assay [20]; in assay [1]; at Cullin-1 (Homo sapiens) [28]) were “Dose-Dependent Effect”, 66.2% and “Dose-Dependent Effect”, respectively. In addition, the IC50 in [21] came out at 39.9 µM; in [29], 17 µM.
With `Cc1cc(Nc2ncc(Cl)c(Nc3ccccc3S(=O)(=O)C(C)C)n2)c(OC(C)C)cc1C1CCNCC1`, in the assay listed under Homo sapiens, the inhibition result was “Active”. Besides, in [1], the inhibition was 88.2%.
